One data set relates to macrophages. The experiment in a line: Chemokine production by in vitro generated macrophages, ELISA of 48 hr. cultures. Type of data set: cell-based. As for the experimental part: FIG. 5. […] Data from one representative experiment of three. […] The concentrations of chemokines in 48 hr. cultures were analyzed by ELISA. […] In order to test the possibility of correcting the chemokine environment in the tumors with low ratios of Teff- to Treg-attracting chemokines, we tested in pilot studies the feasibility of modulating their production using different combinations of IFNα, indomethacin (COX1/2 inhibitor) and poly-I:C in individual populations of tumor-relevant cells (known to infiltrate tumors), such as macrophages, or fibroblasts.
(In general: An ELISA detects its analyte on a solid surface through an enzyme-linked reagent.)

The test system of a further data set is fibroblasts. The experiment in a line: Chemokine production by fibroblasts, ELISA of 48 hr. cultures. Type of data set: cell-based. An excerpt:
FIG. 5. Interplay between COX inhibitor indomethacin, IFNα and poly-I:C in the induction of a desirable patterns of chemokine expression in isolated cell cultures. (A) Dose-dependent impact of IFNa and poly-I:C on the production of Teff-, and Treg-attracting chemokines by in vitro generated macrophages (see M&M) and in fibroblasts (obtained from Cascade Biological). Data from one representative experiment of three. (B) Effects of indomethacin on Teff-, and Treg-attracting chemokines produced by macrophages (N=3) by ELISA analysis. The concentrations of chemokines in 48 hr. cultures were analyzed by ELISA.
In order to test the possibility of correcting the chemokine environment in the tumors with low ratios of Teff- to Treg-attracting chemokines, we tested in pilot studies the feasibility of modulating their production using different combinations of IFNα, indomethacin (COX1/2 inhibitor) and poly-I:C in individual populations of tumor-relevant cells (known to infiltrate tumors), such as macrophages, or fibroblasts.

The test system of data set [1] is colorectal cancer tumor tissues. The data set is described as follows: Ex vivo tumor/tissue explant culture, chemokine ELISA. Type of data set: cell-based, human. Particulars: for CCL5 expression / production / CXCL10 expression / production: tumor tissues ex vivo, 48 hours, ELISA. Here is the method: FIG. 6. […] (A) Fresh tumor samples from 11 patients with metastatic colorectal cancer were untreated or treated with IFNα and poly-I:C either individually or in combination for 48 hours. The release of CCL5 and CXCL10 into culture media was analyzed by ELISA. Numbers indicate the prevalence of tumors with each chemokine pattern (respective patterns A, B or C). (B) ELISA analysis of CCL5, CCL22 and CXCL10 in tumors untreated or treated with IFNα+pI:C, with or without indomethacin. (C) Heterogeneous response of different tumor lesions from the same patient (CCL5 and CXCL10 production) to the individual components of the chemokine-modulating cocktail. (D) Indomethacin and celecoxib enhance the IFNα/poly-I:C-induced Teff-attracting chemokine expression, but suppress Treg-attracting chemokine expression in colorectal cancer lesions. All cultures were for 48 hr. Combined data from the tumors of 3 different patients (n=3).
FIG. 7. […] (A) In-situ hybridization for respective chemokine mRNA (black grains) in tumor biopsies which were either left untreated or treated with the combination of indomethacin, IFNa and poly-I:C (IAP). (B) ELISA analysis of the chemokine contents in the supernatants of 48 hour-cultured tumor tissues (untreated or treated) from 10 different patients.
In order to test the feasibility of using these factors to manipulate the complex microenvironment of whole tumor tissues, involving all the above cell types and their interactions, we used an ex vivo tumor/tissue explant culture system previously developed to study migration of DCs. This system allowed us to avoid nonspecific activation of the chemokine-producing cells during tumor dissociation.

A further data set deals with melanoma tissue. Particulars: melanoma tissue ex vivo, increasing concentrations of melphalan. Here is the method: FIG. 13. […] Tumor biopsies were cultured ex vivo in the presence of increasing concentrations of melphalan in the absence or presence of the triple combination (CAP) of the Celecoxib, IFNα and poly-I:C. Secretion levels of CC22 and CXCL10 were measured by ELISAs.

Data set [2] has as its system liver-metastatic colorectal cancer tissues versus marginal liver tissues. The data set is described as follows: Chemokine production in matched liver-metastatic tumor and marginal liver tissues (ELISA, Taqman). Type of data set: cell-based, human. The following applies: tumor tissues, NF-κB inhibitor at 20 μM. Here is the method: (§1) FIG. 9. Selective induction of CXCL10 and CCL5 in liver metastases compared to normal liver tissues: role of NF-κB. Matched samples of marginal liver tissues and liver-metastatic colorectal cancer tissues (3 biopsies in 1 ml in 24 well plate), were cultured for 24 hrs either untreated or treated with IFNα+poly-I:C+indomethacin and (A) analyzed for CCL5 and CXCL10 expression by Taqman. […] The supernatants were analyzed for CCL5 production by ELISA (see matched CXCL10 data in FIG. 4). (C) CAY10470 (20 μM) effects on liver glycogen phosphorylase mRNA expression in matched marginal liver tissue and liver-metastatic colorectal cancer.
Using matched tissue samples from 10 patients with metastatic colon cancer, we compared the responsiveness to the chemokine-modulating regimen between liver-metastatic tumor tissues and marginal tissues. […] This increased responsiveness of tumors compared to marginal tissues was not due to decreased survival of the marginal tissues, as determined by undisturbed expression levels of glycogen phosphorylase (FIG. 9C).

In data set [3] the test system is marginal liver tissue and liver-metastatic colorectal cancer. The experiment in a line: Glycogen phosphorylase mRNA expression as check of tissue survival. Format: cell-based, human. The following applies: at 20 μM. As for the experimental part:
as §1
CAY10470, used in these experiments (at 20 μM), was non-toxic, as shown by similar expression of glycogen phosphorylase mRNA in untreated and treated tissues (FIG. 9C).

Where [4] appears, read: whole tumor tissues, COX inhibitor added to IFNα and poly-I:C.

Take IFNα: the “production of CCL22” value in the data set on macrophages is “strong suppressive effect”. Besides, the “production of CCL22” value with fibroblasts was “strong suppressive effect”. For the same molecule, in data set [1], the “CCL5 expression / production” value is on record as “variable chemokine expression” and the “CXCL10 expression / production” value is on record as “variable chemokine expression”.
Turning to `N[C@@H](Cc1ccc(N(CCCl)CCCl)cc1)C(=O)O` [melphalan], in the data set with melanoma tissue, the “ratio between Treg-attracting and Teff-attracting chemokines (CCL22/CXCL10)” value is “undesirable elevation”.
With `Nc1ccc2ncnc(NCCc3ccc(Oc4ccccc4)cc3)c2c1` [CAY10470], in data set [2], the “CCL5 up-regulation by the chemokine-modulating regimen” value is recorded as “blocked” and the “CXCL10 induction by IFNα/poly-I:C/indomethacin” value was “completely abrogated”. Also, the “toxicity (expression of glycogen phosphorylase mRNA in untreated and treated tissues)” value in data set [3] is listed as “non-toxic”.
For `COc1ccc2c(c1)c(CC(=O)O)c(C)n2C(=O)c1ccc(Cl)cc1` [indomethacin], in the data set with macrophages, the “production of CCL22” value was “suppression of CCL22 production”. The “effects of IFNα and poly-I:C on Teff- and Treg-attracting chemokines (CCL5, CXCL10 induction, CCL22 suppression)” value in the data set with macrophages (indomethacin added) is “further potentiated”. In addition, the “IFNα/poly-I:C-induced Teff-attracting chemokine expression” value in data set [1] (colorectal cancer lesions, 48 hr, tumors of 3 patients) was “enhance”. Moreover, in data set [1] (colorectal cancer lesions, with IFNα/poly-I:C, 48 hr, tumors of 3 patients), the Treg-attracting chemokine expression entry is reported as “suppress”. In data set [1] (setting [4]), the CCL22 levels entry is “reduced”; the “production of CCL5 induced by the combination IFNα and poly-I:C” value is recorded as “further enhanced”; the “production of CXCL10 induced by the combination IFNα and poly-I:C” value is listed as “further enhanced”.
As to “polyinosinic-polycytidylic acid [poly-I:C]”, in data set [1], the “CCL5 expression / production” value is on record as “variable chemokine expression” and the “CXCL10 expression / production” value is given as “variable chemokine expression”.
